Counter-ions that a name gives are not always drawn.
Experiments:
[1] = Log P (n-octanol/water) of perfuming compounds (Tables 4 to 10)
[2] = Odor threshold and odor value of perfuming compounds (Tables 4 to 10)
[3] = Volatility of perfuming compounds (Tables 4 to 10), with top/middle/bottom note type; assay type: physicochemical
How it was run: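 Volatility is expressed in μg/l in air. Top notes are 70,000 to 100 μg/l, middle notes 99 to 50 μg/l, and bottom notes 49 to 0.1 μg/l. Compounds are grouped by olfactive family: watery, green, fruity, citrus, sweet, gourmand and woody.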

[4] = Table 10, perfuming compounds having a woody note, note type by volatility
[5] = Table 6, perfuming compounds having a fruity note
[6] = n-octanol/water, perfuming compounds having a green note
[7] = perfuming compounds having a green note
[8] = note type (Top/Middle/Bottom) by volatility, perfuming compounds having a green note
[9] = Table 6, perfuming compounds having a fruity note, note type by volatility
[10] = Table 8, perfuming compounds having a sweet note
[11] = Table 8, perfuming compounds having a sweet note, note type by volatility
[12] = Table 9, perfuming compounds having a gourmand note, note type by volatility

SMILES | Log P (n-octanol/water) [1, 5] | Log P (n-octanol/water) [1, 6] | Odor Threshold (μg/l air) [2, 7] | Type [3, 8] | Volatility (μg/l air) [3, 7] | Volatility [3, 5] | Type [3, 9] | other results
CCC(C)C1(C)COC(C2CCC(C)=CC2C)OC1 (stereo not drawn) |  |  |  |  |  |  |  | Log P (n-octanol/water) ([1]; Table 10, woody note): 6.50; Odor Threshold ([2]; Table 10, woody note): 1.67E−03 μg/l air; Type [3, 4]: Bottom; Volatility ([3]; Table 10, woody note): 3.82 μg/l air
C/C=C/C(=O)C1=C(C)C=CCC1(C)C | 3.33 |  |  |  |  |  |  | Log P (n-octanol/water) ([1]; Table 10, woody note): 3.33; Odor Threshold ([2]; Table 10, woody note): 3.00E−06 μg/l air; Type [3, 4]: Middle; Volatility ([3]; Table 10, woody note): 91.38 μg/l air
Cc1ccc(OCC=O)cc1 |  | 1.99 | 6.46E−05 μg/l air | Middle | 89.41 μg/l air |  |  | 
C=C(C)[C@@H]1CC=C(CO)CC1 |  | 2.68 | 2.07E−02 μg/l air | Bottom | 33.78 μg/l air |  |  | 
COC(=O)OC1CC/C=C\CCC1 (racemic) |  | 3.02 | 3.69E−04 μg/l air | Top | 278.83 μg/l air |  |  | 
CCC(C)C(=O)OCCc1ccccc1 (racemic) [(+−)-2-PHENYLETHYL 2-METHYLBUTANOATE] | 3.64 |  |  |  |  | 37.73 μg/l air | Bottom | Odor Threshold [2, 5]: 8.56E−03 μg/l air; Odor Value [2, 5]: 4.41E+03
CC(=O)C(C)O (racemic) [(+−)-3-HYDROXY-2-BUTANONE] |  | −1.03 | 1.46E−02 μg/l air | Top | 33382.87 μg/l air |  |  | Log P (n-octanol/water) [1, 10]: −1.03; Log P (n-octanol/water) ([1]; Table 9, gourmand note): −1.03; Odor Threshold [2, 10]: 1.46E−02 μg/l air; Odor Value [2, 10]: 2.28E+06; Odor Threshold ([2]; Table 9, gourmand note): 1.46E−02 μg/l air; Volatility [3, 10]: 33382.87 μg/l air; Type [3, 11]: Top; Volatility ([3]; Table 9, gourmand note): 33382.87 μg/l air; Type [3, 12]: Top
CC(CC=O)c1ccccc1 (racemic) [(+−)-3-PHENYLBUTANAL] |  | 2.34 | 3.89E−04 μg/l air | Top | 227.83 μg/l air |  |  | 
CCCCC1CCC(=O)O1 (racemic) [(+−)-4-OCTANOLIDE] | 1.80 |  |  |  |  | 108.41 μg/l air | TOP (perfuming compounds having a volatility ranging from 70,000 to 100 μg/l in air are referred to as “top notes”) | Log P (n-octanol/water) ([1]; Table 9, gourmand note): 1.80; Odor Threshold [2, 5]: 2.32E−05 μg/l air; Odor Value [2, 5]: 4.67E+06; Odor Threshold ([2]; Table 9, gourmand note): 2.32E−05 μg/l air; Volatility ([3]; Table 9, gourmand note): 108.41 μg/l air; Type [3, 12]: Top
CC/C=C\CCOC(=O)C(C)CC (racemic) [(+−)-(Z)-3-HEXENYL 2-METHYLBUTANOATE] | 3.84 | 3.84 | 1.96E−02 μg/l air | Top | 833.05 μg/l air | 833.05 μg/l air | TOP (perfuming compounds having a volatility ranging from 70,000 to 100 μg/l in air are referred to as “top notes”) | 
CCCC(C)C(=O)OCC (racemic) [(+−)-ETHYL 2-METHYLPENTANOATE] | 3.05 | 3.05 | 3.84E−05 μg/l air | Top | 35090.18 μg/l air | 35090.18 μg/l air | TOP (perfuming compounds having a volatility ranging from 70,000 to 100 μg/l in air are referred to as “top notes”) | 
C=C(C)C1CC=C(C)CC1 (single isomer, unassigned; (+)) [(+)-LIMONENE] | 5.40 |  |  |  |  | 10216.93 μg/l air | TOP (perfuming compounds having a volatility ranging from 70,000 to 100 μg/l in air are referred to as “top notes”) | Log P (n-octanol/water) ([1]; Table 7, citrus note): 5.40; Odor Threshold (μg/l air) ([2]; Table 7, citrus note): 1.29E−01 μg/l air; Odor Value ([2]; Table 7, citrus note, equals volatility divided by odor threshold): 7.92E+04; Volatility (μg/l air) ([3]; Table 7, citrus note): 10216.93 μg/l air; Type ([3]; Table 7, citrus note, top, middle or bottom note): Top
COC(OC)C(C)c1ccccc1 (stereo not drawn) [1,1-DIMETHOXY-2-PHENYLPROPANE] |  | 2.50 | 1.42E−02 μg/l air | Top | 376.94 μg/l air |  |  | 
CCCCCCCCCCO [1-DECANOL] |  | 4.10 | 1.13E−02 μg/l air | Bottom | 31.90 μg/l air |  |  | 
CCCOC(C)OCCc1ccccc1 (stereo not drawn) [1-PHENYL-2-(1-PROPOXYETHOXY)ETHANE] |  | 3.58 | 1.52E−03 μg/l air | Middle | 59.63 μg/l air |  |  | 
c1ccc(CCCc2ccccn2)cc1 [2-(3-PHENYLPROPYL)PYRIDINE] |  | 2.87 | 1.29E−06 μg/l air | Bottom | 3.83 μg/l air |  |  | 
SCc1ccco1 [2-FURANMETHANETHIOL] |  |  |  |  |  |  |  | Log P (n-octanol/water) [1, 10]: 1.70; Odor Threshold [2, 10]: 1.43E−09 μg/l air; Odor Value [2, 10]: 2.08E+13; Volatility [3, 10]: 29677.31 μg/l air; Type [3, 11]: Top
CCCC(C)COC(=O)C(C)CCC (stereo not drawn) [2-METHYLPENTYL 2-METHYLPENTANOATE] | 5.13 | 5.13 | 2.41E−01 μg/l air | Top | 450.33 μg/l air | 450.33 μg/l air | TOP (perfuming compounds having a volatility ranging from 70,000 to 100 μg/l in air are referred to as “top notes”) | 
CCCC=C1OC(=O)c2ccccc21 [3-BUTYLIDENE-1-BENZO[C]FURANONE] |  |  |  |  |  |  |  | Log P (n-octanol/water) [1, 10]: 3.12; Log P (n-octanol/water) ([1]; Table 9, gourmand note): 3.12; Odor Threshold [2, 10]: 8.65E−04 μg/l air; Odor Value [2, 10]: 1.66E+04; Odor Threshold ([2]; Table 9, gourmand note): 8.65E−04 μg/l air; Volatility [3, 10]: 14.37 μg/l air; Type [3, 11]: Bottom; Volatility ([3]; Table 9, gourmand note): 14.37 μg/l air; Type [3, 12]: Bottom
CC(=O)CCc1ccc(O)cc1 [4-(4-HYDROXY-1-PHENYL)-2-BUTANONE] | 0.93 |  |  |  |  | 0.36 μg/l air | Bottom | Odor Threshold [2, 5]: 2.05E−07 μg/l air; Odor Value [2, 5]: 1.75E+06
COc1ccc(CCC(C)=O)cc1 [4-(4-METHOXYPHENYL)-2-BUTANONE] | 2.06 |  |  |  |  | 5.58 μg/l air | Bottom | Log P (n-octanol/water) [1, 10]: 2.06; Log P (n-octanol/water) ([1]; Table 9, gourmand note): 2.06; Odor Threshold [2, 5]: 5.88E−06 μg/l air; Odor Value [2, 5]: 9.49E+05; Odor Threshold [2, 10]: 5.88E−06 μg/l air; Odor Value [2, 10]: 9.49E+05; Odor Threshold ([2]; Table 9, gourmand note): 5.88E−06 μg/l air; Volatility [3, 10]: 5.58 μg/l air; Type [3, 11]: Bottom; Volatility ([3]; Table 9, gourmand note): 5.58 μg/l air; Type [3, 12]: Bottom
COc1ccc(C=O)cc1 [4-METHOXYBENZALDEHYDE] |  | 1.56 | 1.81E−05 μg/l air | Middle | 98.47 μg/l air |  |  | 
CC(=O)CCc1ccccc1 [4-PHENYL-2-BUTANONE] | 1.79 | 1.79 | 2.22E−04 μg/l air | Top | 176.55 μg/l air | 176.55 μg/l air | TOP (perfuming compounds having a volatility ranging from 70,000 to 100 μg/l in air are referred to as “top notes”) | 
CC(=O)CCC=C(C)C [6-METHYL-5-HEPTEN-2-ONE] | 2.05 | 2.05 | 1.06E−01 μg/l air | Top | 5775.94 μg/l air | 5775.94 μg/l air | TOP (perfuming compounds having a volatility ranging from 70,000 to 100 μg/l in air are referred to as “top notes”) | 
COC(Cc1ccccc1)OC [(2,2-DIMETHOXYETHYL)BENZENE] |  | 2.10 | 4.55E−02 μg/l air | Top | 456.97 μg/l air |  |  | 
COCCc1ccccc1 [(2-METHOXYETHYL)BENZENE] |  | 2.33 | 6.32E−04 μg/l air | Top | 1239.07 μg/l air |  |  | 
N#C/C=C/c1ccccc1 [(E)-3-PHENYL-2-PROPENENITRILE] |  |  |  |  |  |  |  | Log P (n-octanol/water) ([1]; Table 10, woody note): 1.98; Odor Threshold ([2]; Table 10, woody note): 8.97E−05 μg/l air; Type [3, 4]: Middle; Volatility ([3]; Table 10, woody note): 66.00 μg/l air
C=CCOC(=O)COc1ccccc1 [ALLYL PHENOXYACETATE] | 2.04 | 2.04 | 1.22E−03 μg/l air | Bottom | 9.94 μg/l air | 9.94 μg/l air | Bottom | Odor Threshold [2, 5]: 1.22E−03 μg/l air; Odor Value [2, 5]: 8.13E+03
CC(C)CC(=O)OCc1ccccc1 [BENZYL 3-METHYLBUTANOATE] | 3.45 |  |  |  |  | 63.56 μg/l air | Middle | Log P (n-octanol/water) [1, 10]: 3.45; Odor Threshold [2, 5]: 7.31E−03 μg/l air; Odor Value [2, 5]: 8.70E+03; Odor Threshold [2, 10]: 7.31E−03 μg/l air; Odor Value [2, 10]: 8.70E+03; Volatility [3, 10]: 63.56 μg/l air; Type [3, 11]: Middle
O=COCc1ccccc1 [BENZYL FORMATE] |  | 1.76 | 3.23E−01 μg/l air | Top | 1339.53 μg/l air |  |  | 
